According to ChEMBL document CHEMBL3407338, “Synthesis and structure-activity relationship of novel 1,4-diazabicyclo[2.2.2]octane derivatives as potent antimicrobial agents” (Eur J Med Chem, 2015):

Columns and labels:
Pseudomonas aeruginosa [1] = test: Antimicrobial activity against Pseudomonas aeruginosa ATCC 9027 at 1 ug/ml after 24 hrs by agar diffusion method; format: functional; conditions: ATCC 9027, 24 h, read-out: DIZ
Staphylococcus aureus [2] = test: Antimicrobial activity against 10^7 CFU/ml Staphylococcus aureus ATCC 25923 assessed as reduction in CFU/ml at measured at 10 ug/ml after 5 hrs by time-kill kinetic study relative to control; format: functional; set-up: scale not given: the % may be the effect or the level left
Pseudomonas aeruginosa [3] = test: Antimicrobial activity against 10^7 CFU/ml Pseudomonas aeruginosa ATCC 9027 assessed as reduction in CFU/ml at measured at 10 ug/ml after 2.5 hrs by time-kill kinetic study relative to control; format: functional; set-up: scale not given: the % may be the effect or the level left
MEF = test: Cytotoxicity against mouse MEF cells after 72 hrs by MTT assay; format: cell-based
Pseudomonas aeruginosa [4] = test: Antimicrobial activity against 10^7 CFU/ml Pseudomonas aeruginosa ATCC 9027 assessed as reduction in CFU/ml at measured at 10 ug/ml after 5 hrs by time-kill kinetic study relative to control; format: functional; set-up: scale not given: the % may be the effect or the level left
Staphylococcus aureus [5] = test: Antimicrobial activity against 10^4 CFU/ml Staphylococcus aureus ATCC 25923 assessed as reduction in CFU/ml at measured at 10 ug/ml after 2.5 hrs by time-kill kinetic study relative to control; format: functional; set-up: scale not given: the % may be the effect or the level left
Staphylococcus aureus [6] = test: Antimicrobial activity against 10^7 CFU/ml Staphylococcus aureus ATCC 25923 after 22 hrs by serial microdilution method; format: functional; conditions: ATCC 25923, 22 h
Staphylococcus aureus [7] = test: Antimicrobial activity against 10^4 CFU/ml Staphylococcus aureus ATCC 25923 assessed as reduction in CFU/ml at measured at 10 ug/ml after 22 hrs by time-kill kinetic study relative to control; format: functional; set-up: scale not given: the % may be the effect or the level left
Salmonella enterica [8] = test: Antimicrobial activity against Salmonella enterica ATCC 14028 at 1 ug/ml after 24 hrs by agar diffusion method; format: functional; conditions: ATCC 14028, 24 h, read-out: DIZ
Salmonella enterica [9] = test: Antimicrobial activity against 10^7 CFU/ml Salmonella enterica ATCC 14028 after 22 hrs by serial microdilution method; format: functional; conditions: ATCC 14028, 22 h
[10] = Cytotoxicity against mouse LMTK cells after 72 hrs by MTT assay; format: cell-based; conditions: L-M(TK-)
Candida albicans [11] = test: Antimicrobial activity against 10^7 CFU/ml Candida albicans ATCC 32354 after 22 hrs by serial microdilution method; format: functional; conditions: ATCC 32354, 22 h
Staphylococcus aureus [12] = test: Antimicrobial activity against 10^7 CFU/ml Staphylococcus aureus ATCC 25923 assessed as reduction in CFU/ml at measured at 10 ug/ml after 22 hrs by time-kill kinetic study relative to control; format: functional; set-up: scale not given: the % may be the effect or the level left
Escherichia coli [13] = test: Antimicrobial activity against 10^7 CFU/ml Escherichia coli ATCC 25922 after 22 hrs by serial microdilution method; format: functional; conditions: ATCC 25922, 22 h
Candida albicans [14] = test: Antimicrobial activity against Candida albicans ATCC 32354 at 1 ug/ml after 24 hrs by agar diffusion method; format: functional; conditions: ATCC 32354, 24 h, read-out: DIZ
RPMI-8226 = test: Cytotoxicity against human RPMI8226 cells after 72 hrs by MTT assay; format: cell-based; conditions: RPMI-8226, 72 h
Salmonella enterica [15] = test: Antimicrobial activity against 10^4 CFU/ml Salmonella enterica ATCC 14028 after 22 hrs by serial microdilution method; format: functional; conditions: ATCC 14028, 22 h
Escherichia coli [16] = test: Antimicrobial activity against Escherichia coli ATCC 25922 at 1 ug/ml after 24 hrs by agar diffusion method; format: functional; conditions: ATCC 25922, 24 h, read-out: DIZ
Bacillus subtilis [17] = test: Antimicrobial activity against 10^4 CFU/ml Bacillus subtilis ATCC 6633 after 22 hrs by serial microdilution method; format: functional; conditions: ATCC 6633, 22 h
Pseudomonas aeruginosa [18] = test: Antimicrobial activity against 10^4 CFU/ml Pseudomonas aeruginosa ATCC 9027 assessed as reduction in CFU/ml at measured at 10 ug/ml after 22 hrs by time-kill kinetic study relative to control; format: functional; set-up: scale not given: the % may be the effect or the level left
Pseudomonas aeruginosa [19] = test: Antimicrobial activity against 10^7 CFU/ml Pseudomonas aeruginosa ATCC 9027 after 22 hrs by serial microdilution method; format: functional; conditions: ATCC 9027, 22 h
Bacillus subtilis [20] = test: Antimicrobial activity against 10^7 CFU/ml Bacillus subtilis ATCC 6633 after 22 hrs by serial microdilution method; format: functional; conditions: ATCC 6633, 22 h
Escherichia coli [21] = test: Antimicrobial activity against 10^4 CFU/ml Escherichia coli ATCC 25922 after 22 hrs by serial microdilution method; format: functional; conditions: ATCC 25922, 22 h
Pseudomonas aeruginosa [22] = test: Antimicrobial activity against 10^4 CFU/ml Pseudomonas aeruginosa ATCC 9027 after 22 hrs by serial microdilution method; format: functional; conditions: ATCC 9027, 22 h
Pseudomonas aeruginosa [23] = test: Antimicrobial activity against 10^4 CFU/ml Pseudomonas aeruginosa ATCC 9027 assessed as reduction in CFU/ml at measured at 10 ug/ml after 2.5 hrs by time-kill kinetic study relative to control; format: functional; set-up: scale not given: the % may be the effect or the level left
Pseudomonas aeruginosa [24] = test: Antimicrobial activity against 10^4 CFU/ml Pseudomonas aeruginosa ATCC 9027 assessed as reduction in CFU/ml at measured at 10 ug/ml after 5 hrs by time-kill kinetic study relative to control; format: functional; set-up: scale not given: the % may be the effect or the level left
Pseudomonas aeruginosa [25] = test: Antimicrobial activity against 10^7 CFU/ml Pseudomonas aeruginosa ATCC 9027 assessed as reduction in CFU/ml at measured at 10 ug/ml after 22 hrs by time-kill kinetic study relative to control; format: functional; set-up: scale not given: the % may be the effect or the level left
Bacillus subtilis [26] = test: Antimicrobial activity against Bacillus subtilis ATCC 6633 at 1 ug/ml after 24 hrs by agar diffusion method; format: functional; conditions: ATCC 6633, 24 h, read-out: DIZ
Staphylococcus aureus [27] = test: Antimicrobial activity against 10^7 CFU/ml Staphylococcus aureus ATCC 25923 assessed as reduction in CFU/ml at measured at 10 ug/ml after 2.5 hrs by time-kill kinetic study relative to control; format: functional; set-up: scale not given: the % may be the effect or the level left
Staphylococcus aureus [28] = test: Antimicrobial activity against 10^4 CFU/ml Staphylococcus aureus ATCC 25923 assessed as reduction in CFU/ml at measured at 10 ug/ml after 5 hrs by time-kill kinetic study relative to control; format: functional; set-up: scale not given: the % may be the effect or the level left
HEK-293T = test: Cytotoxicity against human HEK293T cells after 72 hrs by MTT assay; format: cell-based
Staphylococcus aureus [29] = test: Antimicrobial activity against Staphylococcus aureus ATCC 25923 at 1 ug/ml after 24 hrs by agar diffusion method; format: functional; conditions: ATCC 25923, 24 h, read-out: DIZ
Staphylococcus aureus [30] = test: Antimicrobial activity against 10^4 CFU/ml Staphylococcus aureus ATCC 25923 after 22 hrs by serial microdilution method; format: functional; conditions: ATCC 25923, 22 h
Candida albicans [31] = test: Antimicrobial activity against 10^4 CFU/ml Candida albicans ATCC 32354 after 22 hrs by serial microdilution method; format: functional; conditions: ATCC 32354, 22 h

CCCCCCCCCCCC[N+]12CC[N+](CCCCC[N+]34CC[N+](CCCCCCCCCCCC)(CC3)CC4)(CC1)CC2.[Br-].[Br-].[Cl-].[Cl-]
zone of inhibition at 1 µg/mL (Pseudomonas aeruginosa [1]): 7 mm | Activity (Staphylococcus aureus [2]): 100% | Activity (Pseudomonas aeruginosa [3]): 100% | IC50 (MEF): 12.7 µg/mL | Activity (Pseudomonas aeruginosa [4]): 100% | Activity (Staphylococcus aureus [5]): 100% | MBC (Staphylococcus aureus [6]): 12.5 µg/mL | MIC (Staphylococcus aureus [6]): 6.3 µg/mL | Activity (Staphylococcus aureus [7]): 100% | zone of inhibition at 1 µg/mL (Salmonella enterica [8]): 7 mm | MBC (Salmonella enterica [9]): 50 µg/mL | MIC (Salmonella enterica [9]): 25 µg/mL | IC50 [10]: 25.6 µg/mL | MBC (Candida albicans [11]): 12.5 µg/mL | MIC (Candida albicans [11]): 12.5 µg/mL | Activity (Staphylococcus aureus [12]): 100% | MBC (Escherichia coli [13]): 6.3 µg/mL | MIC (Escherichia coli [13]): 6.3 µg/mL | zone of inhibition at 1 µg/mL (Candida albicans [14]): 10 mm | IC50 (RPMI-8226): 11.7 µg/mL | MBC (Salmonella enterica [15]): 25 µg/mL | MIC (Salmonella enterica [15]): 25 µg/mL | zone of inhibition at 1 µg/mL (Escherichia coli [16]): 9 mm | MBC (Bacillus subtilis [17]): < 1.6 µg/mL | MIC (Bacillus subtilis [17]): < 1.6 µg/mL | Activity (Pseudomonas aeruginosa [18]): 100% | MBC (Pseudomonas aeruginosa [19]): 6.3 µg/mL | MIC (Pseudomonas aeruginosa [19]): 6.3 µg/mL | MBC (Bacillus subtilis [20]): 3.1 µg/mL | MIC (Bacillus subtilis [20]): 3.1 µg/mL | MBC (Escherichia coli [21]): 3.1 µg/mL | MIC (Escherichia coli [21]): 3.1 µg/mL | MBC (Pseudomonas aeruginosa [22]): < 1.6 µg/mL | MIC (Pseudomonas aeruginosa [22]): < 1.6 µg/mL | Activity (Pseudomonas aeruginosa [23]): 99.9% | Activity (Pseudomonas aeruginosa [24]): 100% | Activity (Pseudomonas aeruginosa [25]): 100% | zone of inhibition at 1 µg/mL (Bacillus subtilis [26]): 10 mm | Activity (Staphylococcus aureus [27]): 100% | Activity (Staphylococcus aureus [28]): 100% | IC50 (HEK-293T): 23.4 µg/mL | zone of inhibition at 1 µg/mL (Staphylococcus aureus [29]): 10 mm | MBC (Staphylococcus aureus [30]): 6.3 µg/mL | MIC (Staphylococcus aureus [30]): 3.1 µg/mL | MBC (Candida albicans [31]): 6.3 µg/mL | MIC (Candida albicans [31]): 3.1 µg/mL

CCCCCCCCCC[N+]12CC[N+](CCCCC[N+]34CC[N+](CCCCCCCCCC)(CC3)CC4)(CC1)CC2.[Br-].[Br-].[Br-].[Br-]
zone of inhibition at 1 µg/mL (Pseudomonas aeruginosa [1]): 6 mm | Activity (Staphylococcus aureus [2]): 100% | Activity (Pseudomonas aeruginosa [3]): 0% | IC50 (MEF): 23.4 µg/mL | Activity (Pseudomonas aeruginosa [4]): 43% | Activity (Staphylococcus aureus [5]): 100% | MBC (Staphylococcus aureus [6]): 6.3 µg/mL | MIC (Staphylococcus aureus [6]): 6.3 µg/mL | Activity (Staphylococcus aureus [7]): 100% | zone of inhibition at 1 µg/mL (Salmonella enterica [8]): 7 mm | MBC (Salmonella enterica [9]): 50 µg/mL | MIC (Salmonella enterica [9]): 12.5 µg/mL | IC50 [10]: 56.4 µg/mL | MBC (Candida albicans [11]): < 1.6 µg/mL | MIC (Candida albicans [11]): < 1.6 µg/mL | Activity (Staphylococcus aureus [12]): 100% | MBC (Escherichia coli [13]): 12.5 µg/mL | MIC (Escherichia coli [13]): 6.3 µg/mL | zone of inhibition at 1 µg/mL (Candida albicans [14]): 10 mm | IC50 (RPMI-8226): 45.2 µg/mL | MBC (Salmonella enterica [15]): 25 µg/mL | MIC (Salmonella enterica [15]): 12.5 µg/mL | zone of inhibition at 1 µg/mL (Escherichia coli [16]): 10 mm | MBC (Bacillus subtilis [17]): < 1.6 µg/mL | MIC (Bacillus subtilis [17]): < 1.6 µg/mL | Activity (Pseudomonas aeruginosa [18]): 25% | MBC (Pseudomonas aeruginosa [19]): 25 µg/mL | MIC (Pseudomonas aeruginosa [19]): 12.5 µg/mL | MBC (Bacillus subtilis [20]): 3.1 µg/mL | MIC (Bacillus subtilis [20]): 3.1 µg/mL | MBC (Escherichia coli [21]): 6.3 µg/mL | MIC (Escherichia coli [21]): 6.3 µg/mL | MBC (Pseudomonas aeruginosa [22]): 1.6 µg/mL | MIC (Pseudomonas aeruginosa [22]): 1.6 µg/mL | Activity (Pseudomonas aeruginosa [23]): 62.3% | Activity (Pseudomonas aeruginosa [24]): 99.2% | Activity (Pseudomonas aeruginosa [25]): 0% | zone of inhibition at 1 µg/mL (Bacillus subtilis [26]): 10 mm | Activity (Staphylococcus aureus [27]): 100% | Activity (Staphylococcus aureus [28]): 100% | IC50 (HEK-293T): 93.8 µg/mL | zone of inhibition at 1 µg/mL (Staphylococcus aureus [29]): 10 mm | MBC (Staphylococcus aureus [30]): 12.5 µg/mL | MIC (Staphylococcus aureus [30]): 3.1 µg/mL | MBC (Candida albicans [31]): < 1.6 µg/mL | MIC (Candida albicans [31]): < 1.6 µg/mL
